The record followed here is patent publication US10501440B2, “Heteroarylcarboxamide derivatives as plasma kallikrein inhibitors” (Boehringer Ingelheim International GmbH, priority 2017, dated 2019).

Where two headings read alike, the source gives them in different places.

What is called IC50 is the concentration at which inhibition is half-maximal. The IC90 is the concentration at which the effect reaches the 90% level. A word on the Ki: it is a dissociation constant, usually derived from enzyme kinetics or from competition with a known ligand. A high value points to lower affinity.

Common to all, as to format: biochemical
Assay [1] concerns the target T1, KLKB1 (Homo sapiens (Human), UniProt P03952). Kind of assay: Inhibition of KLKB1 in kaolin activated human PPP. On the procedure: Evaluation of the Inhibition of KLKB1 in Kaolin Activated Human PPP
Platelet poor plasma (PPP) obtained from human wholeblood, anticoagulated with Na-Citrat, was incubated with various concentrations of the test compound together with either 25, 75, 250, or 750 μg/mL kaolin in assay buffer for 20 min at 37° C. such that for each kaolin dose used a concentration response was obtained for the test compound.
(§1) The number of the compound corresponds to the number of the Example in the experimental section.

Assay [2] deals with T1, KLKB1. Kind of assay: Inhibition of KLKB1 using an endpoint assay (fluorogenic substrate H-Pro-Phe-Arg-AMC). The procedure:
(§2) The ability of compounds of formula (I) to inhibit plasma kallikrein (KLKB1), Factor XIIa (FXIIa), Factor XIa (FXIa), Factor Xa (FXa), Factor IIa (alpha-thrombin; FIIa), plasmin, trypsin, tissue kallikrein 1 (KLK1), Factor Vila (FVIIa), or FVIIa complexed with Tissue Factor, phospholipids and CaCl2 (FVIIa/TF/PL/CaCl2) was determined using the following biochemical assays in assay buffer (100 mM Tris, 150 mM NaCL, adjusted to a pH of 7.8 with HCl, and containing 0.1% (w/v) BSA and 0.05% (v/v) Tween20) in the presence of 1% (v/v) DMSO:
Evaluation of the Inhibition of KLKB1 Using an Endpoint Assay
Human KLKB1 (0.01 U/mL; Enzyme Research Laboratories) or rat KLKB1 (0.625 nM; produced in-house) was incubated for 1 h at room temperature with 0.10 μM fluorogenic substrate H-Pro-Phe-Arg-AMC (11295 from Bachem) and various concentrations of the test compound in assay buffer. Subsequently, PPACK 11 (Calbiochem) was added as a stop solution to achieve a final concentration of 1 μM and fluorescence was measured using an Envision Reader (PerkinElmer) with the wavelength excitation setting of 355 nm and the wavelength emission setting of 460 nm.
as §1

The target of assay [3] is T1, KLKB1. Kind of assay: Inhibition of human KLKB1 in dextran sulfate activated human PPP. The procedure:
Evaluation of the Inhibition of Human KLKB1 in Dextran Sulfate Activated Human PPP
Platelet poor plasma (PPP) obtained from human wholeblood, anticoagulated with EDTA, was activated with 12.5 μg/mL dextransulfate for 7 min on ice. The activated PPP was incubated with various concentrations of the test compound in assay buffer. Afterwards the mixture was incubated at 24° C. with 0.25 mM fluorogenic substrate H-Pro-Phe-Arg-AMC (11295 from Bachem) and measurements were performed in a kinetic interval every 2nd minute for 16 min using a Spectramax M5 (Molecular Devices) with the following settings of the wavelength excitation of 350 nm and wavelength emission of 450 nm.
as §1

In assay [4] the target is T1, KLKB1. Kind of assay: Inhibition of KLKB1 (Ki), kinetic assay. The settings on record: 24° C., 0.25 mM H-Pro-Phe-Arg-AMC; IC50 corrected for KM of substrate. On the procedure:
as §2
Evaluation of the Inhibition of KLKB1 (Ki)
Measurements were performed in a kinetic interval every 2nd minute for 16 min using a Spectramax M5 (Molecular Devices) with the following settings of the wavelength excitation of 350 nm and wavelength emission of 450 nm.
as §1
Calculation of pIC50 and Pki Values
The pIC50 values were then fitted using a four-parametric fitting procedure using GraphPad Prism (version 6; GraphPad Software, Inc.).
Where the IC50 is in molar and the KM value in mM.

[5] abbreviates: human platelet poor plasma (Na-Citrat), 25, 75, 250 or 750 μg/mL kaolin, global fit, read-out: IC50.
[6] abbreviates: endpoint assay, 1 h at room temperature, 0.10 μM H-Pro-Phe-Arg-AMC, read-out: IC50.
The mark [7] stands for this setting: human platelet poor plasma (EDTA) activated with 12.5 μg/mL dextransulfate, 24° C., read-out: IC50.

T1 sequence (P03952 391-638 limits assumed): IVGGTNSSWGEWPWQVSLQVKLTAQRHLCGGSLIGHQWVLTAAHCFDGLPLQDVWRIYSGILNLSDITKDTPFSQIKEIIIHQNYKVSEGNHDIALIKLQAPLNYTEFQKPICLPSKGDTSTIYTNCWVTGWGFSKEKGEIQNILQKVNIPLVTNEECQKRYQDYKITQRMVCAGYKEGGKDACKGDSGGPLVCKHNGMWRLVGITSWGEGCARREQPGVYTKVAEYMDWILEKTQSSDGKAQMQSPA
T1 sequence (P03952 20-390 partner limits assumed): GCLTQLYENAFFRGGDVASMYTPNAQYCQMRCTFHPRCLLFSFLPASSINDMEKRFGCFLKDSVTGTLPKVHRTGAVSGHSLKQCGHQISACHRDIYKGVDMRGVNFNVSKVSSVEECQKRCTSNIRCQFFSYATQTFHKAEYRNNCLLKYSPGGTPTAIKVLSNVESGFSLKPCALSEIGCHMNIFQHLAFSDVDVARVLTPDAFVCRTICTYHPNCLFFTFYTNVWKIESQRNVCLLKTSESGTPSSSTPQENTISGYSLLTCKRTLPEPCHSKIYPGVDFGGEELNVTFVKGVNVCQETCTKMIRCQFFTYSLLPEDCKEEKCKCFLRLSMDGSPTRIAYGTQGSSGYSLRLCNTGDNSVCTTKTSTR

On to `Cc1nc(N2CC3CC3C2)ncc1Cn1cc(C(=O)N[C@@H]2CCc3c2ccnc3N)cn1` (stereo partly drawn) [Example 11], for which the figures for the IC50 at KLKB1 [1] (setting [5]), on KLKB1 [2] (setting [6]) and at KLKB1 [3] (setting [7]) were 23.9 nM, 1.7 nM and 50.3 nM, respectively. Further, the 90% effect concentration (IC90) on KLKB1 [1] (human platelet poor plasma (Na-Citrat), 25, 75, 250 or 750 μg/mL kaolin, global fit, read-out: IC90) stood at 232 nM. For the same compound, the Ki on KLKB1 [4] amounted to 1.5 nM.
For the compound `Cc1nc(N2C[C@@H]3[C@H](C#N)[C@@H]3C2)ccc1Cn1cc(C(=O)N[C@@H]2CCc3c2ccnc3N)cn1` [Example 13, N-[(5R)-1-Amino-5H,6H,7H-cyclopenta[c]pyridin-5-yl]-1-({6-[(1R,5S,6R)-6-cyano-3-azabicyclo[3.1.0]hexan-3-yl]-2-methylpyridin-3-yl}methyl)-1H-pyrazole-4-carboxamide], the IC50 on KLKB1 [2] (setting [6]) was 0.5 nM; on KLKB1 [3] (setting [7]) it was 32.3 nM. The compound also returned a Ki at KLKB1 [4] of 0.3 nM.
Regarding `Cc1nc(N2CC3CC3C2)ccc1Cn1cc(C(=O)N[C@@H]2CCc3c2ccnc3N)nn1` (stereo partly drawn) [Example 5], the IC50 at KLKB1 [2] (setting [6]) was found to be 0.8 nM; at KLKB1 [3] (setting [7]), 61.2 nM. The compound further displayed a Ki at KLKB1 [4] of 0.4 nM.
At KLKB1 [1], `Cc1nc(N2CC3C(C2)C3(F)F)ccc1Cn1cc(C(=O)N[C@@H]2CCc3c2ccnc3N)cn1` (stereo partly drawn) [Example 9, N-[(5R)-1-Amino-5H,6H,7H-cyclopenta[c]pyridin-5-yl]-1-[(6-{6,6-difluoro-3-azabicyclo[3.1.0]hexan-3-yl}-2-methylpyridin-3-yl)methyl]-1H-pyrazole-4-carboxamide] had an IC90 of 89.5 nM. Moreover, the IC50 at KLKB1 [1] (setting [5]) was determined as 14 nM; at KLKB1 [2] (setting [6]), 0.6 nM; at KLKB1 [3] (setting [7]), 18.1 nM. In addition, at KLKB1 [4], the Ki was 0.4 nM.
On to `Cc1nc(N2CC3CC3C2)ccc1Cn1cc(C(=O)N[C@@H]2CCc3c2ccnc3N)cn1` (stereo partly drawn) [Example 1, N-[(5R)-1-Amino-5H,6H,7H-cyclopenta[c]pyridin-5-yl]-1-[(6-{3-azabicyclo[3.1.0]hexan-3-yl}-2-methylpyridin-3-yl)methyl]-1H-pyrazole-4-carboxamide], for which the half-inhibitory concentration (IC50) was 19 nM at KLKB1 [1], 0.5 nM against KLKB1 [2] and 54.1 nM against KLKB1 [3]. In addition, the concentration for an effect of 90% (IC90) at KLKB1 [1] amounted to 199 nM. The affinity on KLKB1 [4], expressed as Ki, was 0.3 nM.
